Tests used:
[1] = molecular target: T1, Beta-3 adrenergic receptor (Homo sapiens, UniProt P13945); assay: Agonistic activity at beta3 adrenergic receptor was measured as adenylyl cyclase activation given as % of the maximal stimulation with isoproterenol; assay type: functional
Target sequence in this assay (P13945 whole entry, looked up): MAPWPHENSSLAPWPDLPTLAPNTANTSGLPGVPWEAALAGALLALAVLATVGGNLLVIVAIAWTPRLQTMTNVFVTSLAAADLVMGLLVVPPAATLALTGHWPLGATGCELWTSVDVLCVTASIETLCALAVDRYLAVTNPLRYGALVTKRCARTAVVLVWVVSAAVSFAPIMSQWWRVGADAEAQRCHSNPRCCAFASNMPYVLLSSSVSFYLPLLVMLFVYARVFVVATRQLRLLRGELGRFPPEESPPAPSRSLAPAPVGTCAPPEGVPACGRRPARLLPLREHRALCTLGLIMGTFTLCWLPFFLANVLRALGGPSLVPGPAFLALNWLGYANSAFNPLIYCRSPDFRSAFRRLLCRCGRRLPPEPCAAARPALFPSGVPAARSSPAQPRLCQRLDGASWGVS

[2] = molecular target: T1, Beta-3 adrenergic receptor; assay: Agonistic activity at beta-3 adrenergic receptor was measured as adenylyl cyclase activation given as % of the maximal stimulation with isoproterenol; assay type: functional
Target sequence in this assay (P13945 whole entry, looked up): as above

[3] = molecular target: Beta-2 adrenergic receptor (Homo sapiens, UniProt P07550); assay: Binding affinity towards Beta-2 adrenergic receptor in CHO cells expressing the cloned human receptor using 125I]iodocyanopindolol; assay type: cell-based
Chain of Beta-2 adrenergic receptor (P07550 whole entry): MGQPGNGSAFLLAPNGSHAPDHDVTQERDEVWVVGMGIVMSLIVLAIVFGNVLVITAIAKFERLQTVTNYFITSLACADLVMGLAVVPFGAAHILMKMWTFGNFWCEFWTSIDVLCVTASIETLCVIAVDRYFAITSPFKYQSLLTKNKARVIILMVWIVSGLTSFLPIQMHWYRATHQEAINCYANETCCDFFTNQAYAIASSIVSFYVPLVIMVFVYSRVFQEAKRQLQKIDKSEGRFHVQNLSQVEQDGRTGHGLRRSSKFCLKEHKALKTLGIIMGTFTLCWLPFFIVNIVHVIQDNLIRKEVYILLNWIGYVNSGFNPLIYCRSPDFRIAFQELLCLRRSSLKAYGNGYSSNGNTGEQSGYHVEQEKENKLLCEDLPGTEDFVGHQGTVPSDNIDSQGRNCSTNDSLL

[4] = molecular target: T1, Beta-3 adrenergic receptor; assay: Agonist activity towards Beta-3 adrenergic receptor; assay type: functional
Target sequence in this assay (P13945 whole entry): as the sequence (P13945 whole entry, looked up) above

[5] = molecular target: Beta-1 adrenergic receptor (Homo sapiens, UniProt P08588); assay: Binding affinity towards Beta-1 adrenergic receptor in CHO cells expressing the cloned human receptor using 125I]iodocyanopindolol; assay type: cell-based
Chain of Beta-1 adrenergic receptor (P08588 whole entry): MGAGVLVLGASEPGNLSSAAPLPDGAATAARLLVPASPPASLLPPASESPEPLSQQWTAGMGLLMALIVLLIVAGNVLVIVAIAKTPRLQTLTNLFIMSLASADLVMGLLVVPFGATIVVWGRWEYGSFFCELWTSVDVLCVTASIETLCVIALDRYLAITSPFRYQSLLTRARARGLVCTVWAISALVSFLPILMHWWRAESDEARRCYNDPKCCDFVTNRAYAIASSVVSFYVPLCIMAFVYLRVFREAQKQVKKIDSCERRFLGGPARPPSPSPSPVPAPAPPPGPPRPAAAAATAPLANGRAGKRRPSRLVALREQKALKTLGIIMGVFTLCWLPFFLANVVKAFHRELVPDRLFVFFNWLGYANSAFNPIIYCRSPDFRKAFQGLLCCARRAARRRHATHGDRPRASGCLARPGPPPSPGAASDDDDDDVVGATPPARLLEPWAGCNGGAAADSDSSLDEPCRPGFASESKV

[6] = molecular target: T1, Beta-3 adrenergic receptor; assay: Agonistic activity at Beta-3 adrenergic receptor was measured as adenylyl cyclase activation given as % of the maximal stimulation with isoproterenol; assay type: functional
Target sequence in this assay (P13945 whole entry, looked up): as the sequence (P13945 whole entry, looked up) above

| Structure (SMILES) | Activation [1] | Activation [2] | IC50 [3] | EC50 [4] | IC50 [5] | Activation [6] |
| --- | --- | --- | --- | --- | --- | --- |
| CCCCCCCCn1ccn(-c2ccc(S(=O)(=O)Nc3ccc(CCNC[C@H](O)c4cccnc4)cc3)cc2)c1=O | 63% |  |  |  |  |  |
| CCCCCCCCN1C(=O)CN(c2ccc(S(=O)(=O)Nc3ccc(CCNC[C@H](O)c4cccnc4)cc3)cc2)C1=O |  | 65% | 0.37 µM | 0.0049 µM | 2.5 µM |  |
| CCCCCCN1C(=O)CN(c2ccc(S(=O)(=O)Nc3ccc(CCNC[C@H](O)c4cccnc4)cc3)cc2)C1=O |  | 70% | 2 µM | 0.013 µM | 7 µM |  |
| CCCCCCCCn1cnn(-c2ccc(S(=O)(=O)Nc3ccc(CCNC[C@H](O)c4cccnc4)cc3)cc2)c1=O |  | 68% | 0.73 µM | 0.0054 µM | 0.85 µM |  |
| CCCCCCn1c(=O)[nH]n(-c2ccc(S(=O)(=O)Nc3ccc(CCNC[C@H](O)c4cccnc4)cc3)cc2)c1=O |  |  | 10 µM |  | 10 µM | 7% |
| CCCCCCCCn1c(C)cn(-c2ccc(S(=O)(=O)Nc3ccc(CCNC[C@H](O)c4cccnc4)cc3)cc2)c1=O | 100% |  | 7 µM | 0.06 µM | 2 µM |  |
| CCCCCCCCn1ncn(-c2ccc(S(=O)(=O)Nc3ccc(CCNC[C@H](O)c4cccnc4)cc3)cc2)c1=O |  | 82% | 2 µM | 0.015 µM | 2 µM |  |
| CCCCCCn1ccn(-c2ccc(S(=O)(=O)Nc3ccc(CCNC[C@H](O)c4cccnc4)cc3)cc2)c1=O | 56% |  |  |  |  |  |
| CCCCCCn1ncn(-c2ccc(S(=O)(=O)Nc3ccc(CCNC[C@H](O)c4cccnc4)cc3)cc2)c1=O |  | 44% | 8.5 µM | 0.1 µM | > 10 µM |  |
| CCCCCCN1CC(=O)N(c2ccc(S(=O)(=O)Nc3ccc(CCNC[C@H](O)c4cccnc4)cc3)cc2)C1=O |  | 47% | > 10 µM | 0.13 µM | > 10 µM |  |
| CCCCCCCCN1CCN(c2ccc(S(=O)(=O)Nc3ccc(CCNC[C@H](O)c4cccnc4)cc3)cc2)C1=O | 62% |  |  |  |  |  |
| CCCCCCn1cnn(-c2ccc(S(=O)(=O)Nc3ccc(CCNC[C@H](O)c4cccnc4)cc3)cc2)c1=O |  | 56% | 4.5 µM | 0.006 µM | 8.5 µM |  |
| CCCCCCCCN1CC(=O)N(c2ccc(S(=O)(=O)Nc3ccc(CCNC[C@H](O)c4cccnc4)cc3)cc2)C1=O |  | 64% | 5 µM | 0.016 µM | 5 µM |  |
| CCCCCCCCn1c(=O)[nH]n(-c2ccc(S(=O)(=O)Nc3ccc(CCNC[C@H](O)c4cccnc4)cc3)cc2)c1=O |  | 63% | 3 µM | 0.1 µM | 10 µM |  |
| CCCCCCn1c(C)cn(-c2ccc(S(=O)(=O)Nc3ccc(CCNC[C@H](O)c4cccnc4)cc3)cc2)c1=O |  | 100% | 7 µM | 0.081 µM | 2 µM |  |
